Reference: the supplement of paper PMC7600603

Key:
DLD1 NRF2-WT [1] = details: 72 h; CellTiter-Glo viability
Procedure, shortened: (§1)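 Isogenic DLD1 colorectal cancer cells, either NRF2 wild-type or CRISPR gain-of-function, were grown in DMEM with 10% FBS. They were exposed in 384-well plates to library compounds at 5 concentrations spanning a 10,000-fold range. After 72 h, viability was read by CellTiter-Glo on a Pherastar FS reader and normalised to vehicle wells and 100-μM positive-control wells. EC50 and drug sensitivity score (a normalised area under the curve) came from four-parameter logistic dose-response fits.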

DLD1 NRF2-GOF [2] = details: 72 h; CellTiter-Glo viability
Procedure, shortened: as §1

DLD1 NRF2-WT [3] = assay: drug sensitivity score (DSS) viability (DSS score); higher = more sensitive; extreme values may be limits of the assay; details: 72 h; CellTiter-Glo viability
Procedure, shortened: as §1

DLD1 NRF2-GOF [4] = assay: as above; details: 72 h; CellTiter-Glo viability
Procedure, shortened: as §1

DLD1 NRF2-WT [5] = assay: TC50 cytotoxicity; higher = less toxic; details: 72 h; CellTox Green cytotoxicity
Procedure, shortened: as §1, with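 “cytotoxicity” for “viability”, “CellTox Green” for “CellTiter-Glo”, “TC50” for “EC50”, “from” for “from four-parameter”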

DLD1 NRF2-GOF [6] = assay: TC50 cytotoxicity; higher = less toxic; details: 72 h; CellTox Green cytotoxicity
Procedure, shortened: as §1, with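 “cytotoxicity” for “viability”, “CellTox Green” for “CellTiter-Glo”, “TC50” for “EC50”, “from” for “from four-parameter”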

DLD1 NRF2-WT [7] = assay: drug sensitivity score (DSS) cytotoxicity (DSS score); higher = more toxic; extreme values may be limits of the assay; details: 72 h; CellTox Green cytotoxicity
Procedure, shortened: as §1, with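 “cytotoxicity” for “viability”, “CellTox Green” for “CellTiter-Glo”, “TC50” for “EC50”, “from” for “from four-parameter”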

DLD1 NRF2-GOF [8] = assay: as above; details: 72 h; CellTox Green cytotoxicity
Procedure, shortened: as §1, with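 “cytotoxicity” for “viability”, “CellTox Green” for “CellTiter-Glo”, “TC50” for “EC50”, “from” for “from four-parameter”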

EC50 viability (DLD1 NRF2-WT [1]) [nM]	EC50 viability (DLD1 NRF2-GOF [2]) [nM]	Compound	drug sensitivity score (DLD1 NRF2-WT [3])	drug sensitivity score (DLD1 NRF2-GOF [4])	TC50 cytotoxicity (DLD1 NRF2-WT [5]) [nM]	TC50 cytotoxicity (DLD1 NRF2-GOF [6]) [nM]	drug sensitivity score (DLD1 NRF2-WT [7])	drug sensitivity score (DLD1 NRF2-GOF [8])
424	402	C=CC(=O)Nc1cc(Nc2nccc(-c3cn(C)c4ccccc34)n2)c(OC)cc1N(C)CCN(C)C [Osimertinib]	6.6	4.7	> 2500	> 2500	0.7	0
38.1	908	O=C(O)c1ccc(-c2c[nH]c3ncc(-c4ccccc4)cc23)cc1C1CCCC1	12.1	6.6	> 10000	3470	0.4	2
> 2500	> 2500	Cc1cc([C@@H](C)Nc2ccccc2C(=O)O)c2nc(N3CCOCC3)cc(=O)n2c1 [AZD-6482]	0.1	0	> 2500	> 2500	0	0
1940	1600	CNC(=O)c1ccccc1Nc1cc(Nc2ccc(N3CCOCC3)cc2OC)ncc1C(F)(F)F [VS-4718]	4.3	4.7	> 10000	> 10000	0	0
> 10000	> 10000	CC[C@H](Nc1ncnc2[nH]cnc12)c1nc2cccc(F)c2c(=O)n1-c1ccccc1 [Idelalisib]	1.6	2	> 10000	> 10000	0	0
2290	3700	CN(c1ncccc1CNc1nc(Nc2ccc3c(c2)CC(=O)N3)ncc1C(F)(F)F)S(C)(=O)=O	6.7	4.1	> 10000	> 10000	0	0
687	1510	NC1(C(=O)N[C@@H](CCO)c2ccc(Cl)cc2)CCN(c2ncnc3[nH]ccc23)CC1 [AZD-5363]	6.1	5.2	> 10000	> 10000	0	0
> 1000	> 1000	Cc1ccc(F)c(NC(=O)Nc2ccc(-c3cccc4[nH]nc(N)c34)cc2)c1 [Linifanib]	0.5	1.1	> 1000	> 1000	0	0
> 10000	> 10000	CCOCc1nc2c(N)nc3ccccc3c2n1CC(C)(C)O [Resiquimod]	0.7	0.6	> 10000	> 10000	0	0
> 10000	> 10000	Nc1ccccc1NC(=O)c1ccc(CNC(=O)OCc2cccnc2)cc1 [Entinostat]	0	0	> 10000	> 10000	0	0
26.6	134	CCN1CCN(Cc2ccc(Nc3ncc(F)c(-c4cc(F)c5nc(C)n(C(C)C)c5c4)n3)nc2)CC1 [Abemaciclib]	11.5	6.6	> 2500	> 2500	0	0
> 1000	> 1000	CNC(=O)c1ccc(-c2cnc3ncc(Cc4ccc5ncccc5c4)n3n2)cc1F [Capmatinib]	0	0	> 1000	> 1000	0	0

Continued, molecule first:

Compound	EC50 viability (DLD1 NRF2-WT [1]) [nM]	EC50 viability (DLD1 NRF2-GOF [2]) [nM]	drug sensitivity score (DLD1 NRF2-WT [3])	drug sensitivity score (DLD1 NRF2-GOF [4])	TC50 cytotoxicity (DLD1 NRF2-WT [5]) [nM]	TC50 cytotoxicity (DLD1 NRF2-GOF [6]) [nM]	drug sensitivity score (DLD1 NRF2-WT [7])	drug sensitivity score (DLD1 NRF2-GOF [8])
CCN(CC)CCNC(=O)c1c(C)[nH]c(/C=C2\C(=O)Nc3ccc(F)cc32)c1C [Sunitinib]	381	229	1.9	2.8	> 1000	> 1000	0	0
O=c1[nH]c(=O)n([C@H]2C[C@H](O)[C@@H](CO)O2)cc1C(F)(F)F [Trifluridine]	> 10000	2510	0	2.2	> 10000	> 10000	0	0
COCC1(CO)C(=O)C2CCN1CC2 (stereo unspecified) [APR-246]	> 10000	> 10000	4.5	0	> 10000	> 10000	0	0
O=C1c2c(O)ccc(O)c2C(=O)c2c(NCCNCCO)ccc(NCCNCCO)c21 [Mitoxantrone]	67.4	96.9	12.3	10.1	> 1000	> 1000	0	0
COc1cc2nccc(Oc3ccc(NC(=O)Nc4cc(C)on4)c(Cl)c3)c2cc1OC [Tivozanib]	3040	3590	3.1	2.3	2920	2640	2.3	4.5
CC(C)[C@H](C(=O)Nc1ccc(C(=O)NO)cc1)c1ccccc1 [AR-42]	1260	1730	9.4	5.7	1970	> 10000	4	0
CN(C)Cc1c(C(=O)NCCOc2ccc(C(=O)NO)cc2)oc2ccccc12 [Abexinostat]	582	832	14	10.4	1250	> 10000	7.5	0.7
CCn1c(C(=O)N(C2CC2)C2CC2)cc2c3c(ncn3C)c(Nc3cc(C)n(C)n3)nc21	218	1170	7.2	7.1	> 10000	> 10000	0	0
CC(=O)c1cnc2ccc(-c3cc(Cl)c(O)c(Cl)c3)nc2c1N[C@H]1CC[C@H](CN(C)C)CC1 [OTS167]	70.7	54.5	12.8	13	> 1000	> 1000	0.6	3
CCN(CC)CCN(Cc1ccc(-c2ccc(C(F)(F)F)cc2)cc1)C(=O)Cn1c(SCc2ccc(F)cc2)nc(=O)c2c1CCC2 [Darapladib]	> 1000	> 1000	0	4.1	> 1000	> 1000	0	0
